Reference: ChEMBL document CHEMBL1201862, “PubChem BioAssay data set” (2004)
Calls of active or inactive are those of the source. Rule as the data show it, for most assays here: actives have a measured EC50 and inactives only a lower limit.

Key:
Major prion protein = Major prion protein (Homo sapiens, UniProt P04156); format: functional, cell-based
cells [1] = test: cells
[2] = Luminescence Cell-Based Dose Response HTS to Identify Inhibitors of 5'UTR Stem-Loop Driven Prion Protein mRNA Translation in H4 Neuroglioblastoma Cells. [Related pubchem assays: 1827 (Project Summary), 1813 (Primary HTS)]; format: functional
cells [3] = format: functional, cell-based
[4] = inhibitors of firefly luciferase expression or activity, dose response, H4 neuroglioma cells, luminescence (AID 1990); format: functional, cell-based
[5] = test system: Streptococcus sp. 'group A'; test: growth inhibition of control SK(-) GAS strain, dose response, counter-screen for streptokinase expression inhibitor project, luminescence, kanamycin, BacTiterGlo, confirmation (AID 1900); format: functional, organism-based
[6] = molecular target: T1, Calpain-2 catalytic subunit (Sus scrofa, UniProt P43367); test: pig calpain II inhibitor potency, dose response, biochemical, fluorogenic peptide substrate (AID 1420); format: functional
T1 sequence (P43367 whole entry): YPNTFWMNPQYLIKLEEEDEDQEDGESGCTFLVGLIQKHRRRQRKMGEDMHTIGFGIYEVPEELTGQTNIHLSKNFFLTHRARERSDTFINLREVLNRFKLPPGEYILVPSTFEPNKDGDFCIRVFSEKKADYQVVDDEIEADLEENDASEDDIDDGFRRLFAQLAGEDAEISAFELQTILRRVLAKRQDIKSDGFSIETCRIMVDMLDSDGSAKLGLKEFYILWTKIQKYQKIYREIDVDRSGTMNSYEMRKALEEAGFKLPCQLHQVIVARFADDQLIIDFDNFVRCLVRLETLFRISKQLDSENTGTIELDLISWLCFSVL

Streptococcus = test: Group A Streptococcus viability loss, dose response, counter-screen for streptokinase expression inhibitor project, luminescence, BacTiterGlo (AID 1915); format: functional, organism-based;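 also: potency for reduction of bacterial viability or growth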
cells [7] = format: functional, cell-based; remark: listed apart in the source
Aminopeptidase N = molecular target: T2, Aminopeptidase N (Plasmodium falciparum FcB1/Columbia, UniProt O96935); test: P. falciparum M1AAP inhibitors, biochemical, fluorogenic H-Leu-NHMec substrate, 1536-well (AID 1445); set-up: species or system Plasmodium falciparum 3D7, 3D7
T2 sequence (O96935 whole entry): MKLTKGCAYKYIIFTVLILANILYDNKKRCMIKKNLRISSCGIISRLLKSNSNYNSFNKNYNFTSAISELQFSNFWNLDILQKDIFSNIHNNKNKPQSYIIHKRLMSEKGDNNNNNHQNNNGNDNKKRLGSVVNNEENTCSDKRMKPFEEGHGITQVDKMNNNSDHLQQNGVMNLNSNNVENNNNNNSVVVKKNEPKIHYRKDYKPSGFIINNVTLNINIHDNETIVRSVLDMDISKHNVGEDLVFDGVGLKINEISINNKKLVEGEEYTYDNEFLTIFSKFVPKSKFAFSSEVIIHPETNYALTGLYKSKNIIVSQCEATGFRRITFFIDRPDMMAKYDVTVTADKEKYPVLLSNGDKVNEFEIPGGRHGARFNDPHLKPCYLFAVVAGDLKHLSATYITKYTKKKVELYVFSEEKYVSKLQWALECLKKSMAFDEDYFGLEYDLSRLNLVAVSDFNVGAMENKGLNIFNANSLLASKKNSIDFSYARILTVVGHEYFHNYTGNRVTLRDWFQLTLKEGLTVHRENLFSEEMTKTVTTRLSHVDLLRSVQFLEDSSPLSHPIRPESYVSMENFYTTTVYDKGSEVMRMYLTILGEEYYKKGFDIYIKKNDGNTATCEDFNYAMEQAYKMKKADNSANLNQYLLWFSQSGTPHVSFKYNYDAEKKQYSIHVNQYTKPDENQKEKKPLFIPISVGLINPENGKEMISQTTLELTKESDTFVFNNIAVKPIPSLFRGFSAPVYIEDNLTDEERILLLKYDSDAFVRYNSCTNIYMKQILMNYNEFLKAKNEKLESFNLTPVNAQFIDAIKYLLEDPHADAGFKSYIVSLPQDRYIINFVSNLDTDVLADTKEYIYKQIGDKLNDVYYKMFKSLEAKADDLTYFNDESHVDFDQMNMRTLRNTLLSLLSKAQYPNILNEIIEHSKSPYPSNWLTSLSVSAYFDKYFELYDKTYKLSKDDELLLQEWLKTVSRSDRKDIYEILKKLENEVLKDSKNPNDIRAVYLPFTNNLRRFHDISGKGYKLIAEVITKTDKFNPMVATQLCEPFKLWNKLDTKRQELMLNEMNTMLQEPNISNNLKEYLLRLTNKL

[8] = inhibitors of SNCA 5'UTR-driven reporter translation, confirmation, H4 neuroglioma cells, luminescence (AID 1988); format: functional, cell-based
[9] = NIH-3T3 fibroblast cytotoxicity, dose response, cytotoxicity control, cell-based, fluorescence, Alamar Blue, secondary assay (AID 2327); format: functional;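 also: NIH-3T3 mouse fibroblasts cultured with fluconazole at 8 µg/mL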
[10] = C. albicans growth with fluconazole, confirmation, fluorescence, retest (AID 2467); format: functional, cell-based
[11] = inhibitors of intracellular T. cruzi replication, confirmation, NIH3T3 host cells, beta-gal luminescence (AID 2044); format: functional, cell-based;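 also: intracellular parasites grown in NIH/3T3 mouse fibroblasts as host cells; luminescent beta-galactosidase reporter signal from transgenic T. cruzi replicating inside host cells; inhibitors lower the luminescence signal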
BJ [12] = test: cytotoxicity toward BJ-TERT-LT-ST fibroblasts, dose response, cell-based, RAS-independent, luminescence (AID 1935); format: functional; details: Homo sapiens;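 also: BJ fibroblasts immortalized with TERT plus LT and ST oncogenes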
[13] = cytotoxicity toward NIH3T3 fibroblasts, dose response, counter-screen, cell-based, ATP luminescence, mouse fibroblasts (AID 2010); format: functional;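 also: cells exposed to compound for about 90 hours before reading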
BJ [14] = test: cells; format: functional, cell-based; details: Homo sapiens
[15] = human group III sPLA2 inhibitors, dose response, biochemical, QFRET, IC50 (AID 743457);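 also: green fluorescence rise as the enzyme cleaves BODIPY PC-A2 in liposomes; potency for inhibition of the enzyme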
BJ [16] = test: cytotoxicity toward BJ-TERT fibroblasts, dose response, cell-based, RAS-independent, luminescence (AID 1933); format: functional; details: Homo sapiens
[17] = cytotoxicity toward DRD oncogenic fibroblasts, dose response, cell-based, non-viral oncogenic, luminescence (AID 1934); format: functional; details: Homo sapiens

CCc1nc(SCC(=O)N2c3ccccc3Sc3ccccc32)c2ccccc2n1
IC50 (Major prion protein): 1.84 µM (active)
IC50 (cells [1]): > 138 µM (inactive)

Oc1ccccc1N=Nc1ccccc1O
EC50 [2]: > 120 µM (not active)
EC50 (cells [3]): 2.06 µM (active)
EC50 [4]: 14.7 µM (active)
EC50 [5]: 0.6 µM (active)
IC50 [6]: > 50 µM (not active)
EC50 (Streptococcus): 8.99 µM (active)
EC50 (cells [7]): 12.7 µM (active)
IC50 (Aminopeptidase N): 22.1 µM (active)
EC50 [8]: 0.13 µM (active)
EC50 [9]: > 160 µM (inactive)
EC50 [10]: 1.38 µM (active)
EC50 [11]: 1.3 µM (active)
EC50 (BJ [12]): 3.31 µM (inconclusive)
EC50 [13]: 12.1 µM (active)
EC50 (BJ [14]): 2.3 µM (inconclusive)
IC50 [15]: > 122 µM (inactive)
EC50 (BJ [16]): 0.626 µM (active)
EC50 [17]: 1.15 µM (active)
